According to US12275729B2 (Merck Sharp & Dohme LLC, priority 2017, dated 2025):

What follows are molecules tested against IDO1 (Homo sapiens, UniProt P14902) (assay: IDO1 Cellular Assay in HeLa Cells Stimulated with IFNγ). Settings: about 48 hours, read-out: Hela IC50.
Type: cell-based
Protocol: Biological Assays IDO1 Cellular Assay in HeLa Cells Stimulated with IFNγ
HeLa cells were cultured in complete HeLa culture medium (90% EMEM, 10% heat-inactivated fetal bovine serum) and expanded to about 1×10^9 cells. The cells were then collected and frozen down at 1×10^7 cells/vial in 1 mL frozen medium (90% complete HeLa culture medium, 10% DMSO).
Compounds to be tested were serially diluted in ten 3-fold steps in DMSO starting from 10 mM DMSO stocks in Echo low volume plate(s).
Frozen HeLa cells were thawed and transferred into HeLa assay medium (99% complete HeLa culture medium, 1% Pen/Strep) with 20 mL medium/vial of cells. The cells were spun down at 250 g in a table top centrifuge for 5 min and suspended in same volume of HeLa assay medium. The cells were then counted and adjusted to a density of 2×10^5 cells/mL in HeLa assay medium. Sterile L-tryptophan were added to the cells with final concentration of 300 uM L-tryptophan. A small aliquot (2 mL/plate) of HeLa cells were set aside and were not treated with IFNγ, to serve as the Max-E control.
HeLa cells with and without IFNγ were dispensed to the respective wells of 384-well assay plates containing the compounds. The plates were incubated for about 48 hours at a 37° C., 5% CO2 incubator. Afterwards, 12 μL of 0.5 M methyl isonipecotate in dimethyl sulfoxide were added into each well and the plates were sealed and incubated at 37° C. without CO2 overnight. The plates were centrifuged for 1 min at 200×g. The resulting fluorescence was measured in a Spectramax plate reader (Molecular Devices) with a 400 nm excitation filter and a 510 nm emission filter.
Potencies were calculated by […] least squares fit to the four parameter logistic IC50 equation.

Chain of IDO1 (P14902 whole entry): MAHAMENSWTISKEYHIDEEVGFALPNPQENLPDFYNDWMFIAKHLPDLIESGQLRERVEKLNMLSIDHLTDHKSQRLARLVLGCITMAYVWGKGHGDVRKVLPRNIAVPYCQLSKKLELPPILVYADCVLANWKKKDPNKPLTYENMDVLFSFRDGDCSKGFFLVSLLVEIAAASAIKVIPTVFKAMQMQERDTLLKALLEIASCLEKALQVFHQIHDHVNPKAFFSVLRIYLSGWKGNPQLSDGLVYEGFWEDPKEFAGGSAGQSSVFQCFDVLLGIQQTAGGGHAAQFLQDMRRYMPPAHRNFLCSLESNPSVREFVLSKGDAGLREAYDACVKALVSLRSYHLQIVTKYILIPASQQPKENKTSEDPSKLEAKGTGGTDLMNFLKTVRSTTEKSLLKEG

Question: How did the IC50 turn out when `Cn1ccc(C(=O)NCc2ccc3c(c2)CCCN3C(=O)c2cccc(Cl)c2)n1` [Example 25, N-{[1-(3-chlorobenzene-1-carbonyl)-1,2,3,4-tetrahydroquinolin-6-yl]methyl}-1-methyl-1H-pyrazole-3-carboxamide] was run?
Answer: 136 nM

Question: Which IC50 does the source give for `CC(C)CC(=O)N1CCCc2cc(CC(=O)Nc3ccc(Cl)cc3)ccc21` [Example 35, N-(4-chlorophenyl)-2-(1-(3-methylbutanoyl)-1,2,3,4-tetrahydroquinolin-6-yl)acetamide] here?
Answer: 6.9 nM

Question: For `CC(C(=O)Nc1ccc(F)cc1)c1ccc2c(c1)CCCN2C(=O)C1CC1` (stereo not drawn) [Example 36, 2-[1-(cyclopropanecarbonyl)-1,2,3,4-tetrahydroquinolin-6-yl]-N-(4-fluorophenyl)propanamide], which IC50 is on record?
Answer: 5.8 nM

Question: With `CC(C(=O)Nc1ccc(F)cc1)c1ccc2c(c1)CCCN2C(=O)C1CCCCO1` (stereo not drawn) [Example 37, N-(4-fluorophenyl)-2-[1-(oxane-2-carbonyl)-1,2,3,4-tetrahydroquinolin-6-yl]propanamide] as the molecule, how does the IC50 read?
Answer: 4.8 nM

Question: Which IC50 does the source give for `CC(C(=O)Nc1ccc(F)cc1)c1ccc2c(c1)CCCN2C(=O)C1CCCO1` (stereo not drawn) [Example 39, N-(4-fluorophenyl)-2-[1-(oxolane-2-carbonyl)-1,2,3,4-tetrahydroquinolin-6-yl]propanamide] here?
Answer: 5.4 nM

Question: Which IC50 does the source give for `CC(C)C(=O)N1CCCc2cc(C(C)C(=O)Nc3ccc(F)cc3)ccc21` (stereo not drawn) [Example 40, N-(4-fluorophenyl)-2-[1-(2-methylpropanoyl)-1,2,3,4-tetrahydroquinolin-6-yl]propanamide] here?
Answer: 5 nM

Question: `Cc1cnc(C(=O)N2CCCc3cc(C(C)C(=O)Nc4ccc(F)cc4)ccc32)s1` (stereo not drawn) [Example 41, N-(4-fluorophenyl)-2-[1-(5-methyl-1,3-thiazole-2-carbonyl)-1,2,3,4-tetrahydroquinolin-6-yl]propanamide] was tested. Which IC50 did it give?
Answer: 4.6 nM

Question: Which IC50 does the source give for `Cc1n[nH]c(C(=O)N2CCCc3cc(C(C)C(=O)Nc4ccc(F)cc4)ccc32)n1` (stereo not drawn) [Example 42, N-(4-fluorophenyl)-2-[1-(3-methyl-1H-1,2,4-triazole-5-carbonyl)-1,2,3,4-tetrahydroquinolin-6-yl]propanamide] here?
Answer: 38.4 nM

Question: How did the IC50 turn out when `Cc1noc(C(=O)N2CCCc3cc(C(C)C(=O)Nc4ccc(F)cc4)ccc32)n1` (stereo not drawn) [Example 43, N-(4-fluorophenyl)-2-[1-(3-methyl-1H-1,2,4-oxadiazole-5-carbonyl)-1,2,3,4-tetrahydroquinolin-6-yl]propanamide] was run?
Answer: 4.2 nM

Question: Which IC50 does the source give for `Cc1nnc(C(=O)N2CCCc3cc(C(C)C(=O)Nc4ccc(F)cc4)ccc32)o1` (stereo not drawn) [Example 44] here?
Answer: 16.8 nM

Question: `Cc1nc(C(=O)N2CCCc3cc(C(C)C(=O)Nc4ccc(F)cc4)ccc32)co1` (stereo not drawn) [Example 45, N-(4-fluorophenyl)-2-[1-(2-methyl-1,3-oxazole-4-carbonyl)-1,2,3,4-tetrahydroquinolin-6-yl]propanamide] was tested. Which IC50 did it give?
Answer: 5.9 nM

Question: How did the IC50 turn out when `Cc1cc(C(=O)N2CCCc3cc(C(C)C(=O)Nc4ccc(F)cc4)ccc32)no1` (stereo not drawn) [Example 46, N-(4-fluorophenyl)-2-[1-(5-methyl-1,2-oxazole-3-carbonyl)-1,2,3,4-tetrahydroquinolin-6-yl]propanamide] was run?
Answer: 3.9 nM

Question: `Cc1nc(C(=O)N2CCCc3cc(C(C)C(=O)Nc4ccc(F)cc4)ccc32)no1` (stereo not drawn) [Example 47, N-(4-fluorophenyl)-2-[1-(5-methyl-1,2,4-oxadiazole-3-carbonyl)-1,2,3,4-tetrahydroquinolin-6-yl]propanamide] was tested. Which IC50 did it give?
Answer: 3.4 nM

Question: `CC(C(=O)Nc1ccc(F)cc1)c1ccc2c(c1)CCCN2C(=O)c1cnco1` (stereo not drawn) [Example 49, N-(4-fluorophenyl)-2-[1-(1,3-oxazole-5-carbonyl)-1,2,3,4-tetrahydroquinolin-6-yl]propanamide] was tested. Which IC50 did it give?
Answer: 30 nM

Question: Which IC50 does the source give for `C=CCC(C(=O)Nc1ccc(F)cc1)c1ccc2c(c1)CCCN2C(=O)c1cccc(Cl)c1` (stereo not drawn) [Example 58, 2-[1-(3-chlorobenzene-1-carbonyl)-1,2,3,4-tetrahydroquinolin-6-yl]-N-(4-fluorophenyl)pent-4-enamide] here?
Answer: 4.3 nM

Question: `COCC(=O)N1CCCc2cc(C(C)C(=O)Nc3ccc(F)cc3)ccc21` (stereo not drawn) [Example 59, N-(4-fluorophenyl)-2-[1-(methoxyacetyl)-1,2,3,4-tetrahydroquinolin-6-yl]propanamide] was tested. Which IC50 did it give?
Answer: 20 nM

Question: For `Cc1nc(C(=O)N2CCCc3cc([C@@H](C)C(=O)Nc4ccc(F)cn4)ccc32)no1` [Example 64, (2R)-N-(5-fluoropyridin-2-yl)-2-[1-(5-methyl-1,2,4-oxadiazole-3-carbonyl)-1,2,3,4-tetrahydroquinolin-6-yl]propanamide], which IC50 is on record?
Answer: 44.4 nM

Question: How did the IC50 turn out when `CC(C(=O)Nc1ccc(F)cc1)c1ccc2c(c1)CCCN2C(=O)C1(C(F)(F)F)CC1` (stereo not drawn) [Example 66, N-(4-fluorophenyl)-2-{1-[1-(trifluoromethyl)cyclopropane-1-carbonyl]-1,2,3,4-tetrahydroquinolin-6-yl}propanamide] was run?
Answer: 7.2 nM

Question: How did the IC50 turn out when `C[C@H](C(=O)Nc1ccc(F)cc1)c1ccc2c(c1)CCCN2C(=O)C[C@@H](C)O` [Example 68, (2S)-N-(4-fluorophenyl)-2-{1-[(3R)-3-hydroxybulanoyl]-1,2,3,4-tetrahydroquinolin-6-yl}propanamide] was run?
Answer: 296 nM

Question: With `CC(=O)N1CC(C(=O)N2CCCc3cc([C@H](C)C(=O)Nc4ccc(F)cc4)ccc32)C1` [Example 69, (2S)-2-[1-(1-acetylazetidine-3-carbonyl)-1,2,3,4-tetrahydroquinolin-6-yl]-N-(4-fluorophenyl)propanamide] as the molecule, how does the IC50 read?
Answer: 9020 nM

Question: With `C[C@H](C(=O)Nc1ccc(F)cc1)c1ccc2c(c1)CCCN2C(=O)CCOC(C)(C)C` [Example 70, (2S)-2-[1-(3-tert-butoxypropanoyl)-1,2,3,4-tetrahydroquinolin-6-yl]-N-(4-fluorophenyl)propanamide] as the molecule, how does the IC50 read?
Answer: 3380 nM

Question: For `C[C@H](C(=O)Nc1ccc(F)cc1)c1ccc2c(c1)CCCN2C(=O)CC(C)(C)O` [Example 71, (2S)-N-(4-fluorophenyl)-2-[1-(3-hydroxy-3-methylbutanoyl)-1,2,3,4-tetrahydroquinolin-6-yl]propanamide], which IC50 is on record?
Answer: 30.3 nM

Question: `C[C@H](C(=O)Nc1ccc(F)cc1)c1ccc2c(c1)CCCN2C(=O)C1CN(C)CCO1` (stereo partly drawn) [Example 74, (2S)-N-(4-fluorophenyl)-2-[1-(4-methylmorpholine-2-carbonyl)-1,2,3,4-tetrahydroquinolin-6-yl]propanamide] was tested. Which IC50 did it give?
Answer: 460 nM

Question: `COCCOCC(=O)N1CCCc2cc([C@H](C)C(=O)Nc3ccc(F)cc3)ccc21` [Example 77, (2S)-N-(4-fluorophenyl)-2-{1-[(2-methoxyethoxy)acetyl]-1,2,3,4-tetrahydroquinolin-6-yl}propanamide] was tested. Which IC50 did it give?
Answer: 1240 nM

Question: Which IC50 does the source give for `C[C@H](C(=O)Nc1ccc(F)cc1)c1ccc2c(c1)CCCN2C(=O)[C@@H]1CCOC1` [Example 78, (2S)-N-(4-fluorophenyl)-2-{1-[(3R)-oxolane-3-carbonyl]-1,2,3,4-tetrahydroquinolin-6-yl}propanamide] here?
Answer: 51.6 nM

Question: Which IC50 does the source give for `C[C@H](C(=O)Nc1ccc(F)cc1)c1ccc2c(c1)CCCN2C(=O)C1CC(F)(F)C1` [Example 79, (2S)-2-[1-(3,3-difluorocyclobutane-1-carbonyl)-1,2,3,4-tetrahydroquinolin-6-yl]-N-(4-fluorophenyl)propanamide] here?
Answer: 34.7 nM

Question: `C[C@H](C(=O)Nc1ccc(F)cc1)c1ccc2c(c1)CCCN2C(=O)C1CCC1` [Example 80, (2S)-2-[1-(cyclobutanecarbonyl)-1,2,3,4-tetrahydroquinolin-6-yl]-N-(4-fluorophenyl)propanamide] was tested. Which IC50 did it give?
Answer: 4.5 nM

Question: `C[C@H](C(=O)Nc1ccc(F)cc1)c1ccc2c(c1)CCCN2C(=O)CC1CC1` [Example 82, (2S)-2-[1-(cyclopropylacetyl)-1,2,3,4-tetrahydroquinolin-6-yl]-N-(4-fluorophenyl)propanamide] was tested. Which IC50 did it give?
Answer: 10.9 nM

Question: Which IC50 does the source give for `CC(C)C(=O)N1CCCc2cc([C@H](C)C(=O)Nc3ccc(F)cc3)ccc21` [Example 83, (2S)-N-(4-fluorophenyl)-2-[1-(2-methylpropanoyl)-1,2,3,4-tetrahydroquinolin-6-yl]propanamide] here?
Answer: 9.4 nM

Question: How did the IC50 turn out when `C[C@H](C(=O)Nc1ccc(F)cc1)c1ccc2c(c1)CCCN2C(=O)[C@@H]1CCCO1` [Example 84, (2S)-N-(4-fluorophenyl)-2-{1-[(2S)-oxolane-2-carbonyl]-1,2,3,4-tetrahydroquinolin-6-yl]propanamide] was run?
Answer: 32.3 nM

Question: How did the IC50 turn out when `C[C@H](C(=O)Nc1ccc(F)cc1)c1ccc2c(c1)CCCN2C(=O)CC#N` [Example 85, (2S)-2-[1-(cyanoacetyl)-1,2,3,4-tetrahydroquinolin-6-yl]-N-(4-fluorophenyl)propanamide] was run?
Answer: 2540 nM

Question: With `CO[C@H]1C[C@H](C(=O)N2CCCc3cc([C@H](C)C(=O)Nc4ccc(F)cc4)ccc32)C1` [Example 86, (2S)-N-(4-fluorophenyl)-2-[1-(trans-3-methoxycyclobutane-1-carbonyl)-1,2,3,4-tetrahydroquinolin-6-yl]propanamide] as the molecule, how does the IC50 read?
Answer: 17.6 nM

Question: Which IC50 does the source give for `C[C@H](C(=O)Nc1ccc(F)cc1)c1ccc2c(c1)CCCN2C(=O)CC(C)(C)C` [Example 90, (2S)-2-[1-(3,3-dimethylbutanoyl)-1,2,3,4-tetrahydroquinolin-6-yl]-N-(4-fluorophenyl)propanamide] here?
Answer: 7 nM
